We go through 20 compounds from article PMC4624220 (Journal of medicinal chemistry, 2015).

The target of series [1] is T1, α-syn fibrils (Homo sapiens, UniProt P37840).
The target in series [2] is T2, Aβ1-42 fibrils (Homo sapiens, UniProt P05067).
Series [3] has as its target T3, tau fibrils (Homo sapiens, UniProt P10636).
Series [4] deals with T1, α-syn fibrils. Kind of series: biochemical.
Series [5] has as its target T2, Aβ1-42 fibrils. As to the kind of experiment: biochemical.
Series [6] addresses T3, tau fibrils. As to the kind of experiment: biochemical.
The next series concerns the target Lewy bodies (Homo sapiens, UniProt P37840). Kind of series: Fluorescent staining of postmortem PD/DLB midbrain tissue. The following applies: 5 μM compound, PD/DLB midbrain sections, fluorescence microscopy.
A short description of series [7]: Stability of isomers in solution measured by HPLC. Type of series: physicochemical. The following applies: for time for isolated pure Z,E and E,E isomers to isomerize to a mixture: after HPLC separation of the isomers.
A further series concerns the target Aβ plaques (Homo sapiens, UniProt P05067). As to the kind of experiment: Fluorescent staining of postmortem AD temporal lobe tissue. The following applies: 5 μM compound, AD temporal lobe sections, fluorescence microscopy.

Values joined by “and” are separate entries in the source; they are usually repeats but may differ in a detail not shown here. Equal values may be shown once. “Also recorded” adds a separate entry of the source. Read-outs that look alike come from different tables or passages of the source.

T2 sequence (P05067 672-713 limits assumed): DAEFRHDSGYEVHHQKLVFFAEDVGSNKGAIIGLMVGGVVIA
T3 sequence (P10636 560-692): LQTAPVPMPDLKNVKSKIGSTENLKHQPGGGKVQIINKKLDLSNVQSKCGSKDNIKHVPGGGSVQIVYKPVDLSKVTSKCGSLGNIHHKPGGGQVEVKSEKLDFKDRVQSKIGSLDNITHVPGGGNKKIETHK
Aβ plaques, sequence (P05067 672-711 limits assumed): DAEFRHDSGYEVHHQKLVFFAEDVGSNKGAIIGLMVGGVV

“3-(3-(4-(Dimethylamino)phenyl)allylidene)-1-(pyridin-4-ylmethyl)indolin-2-one [Compound 29]”: the Ki was 92 ± 11.2 nM on α-syn fibrils [1], 45.9 ± 19.4 nM at Aβ1-42 fibrils [2] and 188 ± 68 nM at tau fibrils [3].
As to “3-(4-(Dimethylamino)benzylidene)-1-(pyridin-4-ylmethyl)indolin-2-one [Compound 11]”, the Ki at α-syn fibrils [1] worked out at 150 ± 45.7 nM; on Aβ1-42 fibrils [2] it was 87.1 ± 34.1 nM; on tau fibrils [3], 364 ± 121 nM.
`O=C1Nc2ccccc2C1=C/C=C/c1ccccc1` [Compound 18, 3-(3-Phenylallylidene)indolin-2-one]: the inhibition constant Ki at α-syn fibrils [4] is 206 nM and 207 nM; at Aβ1-42 fibrils [5] it was 267 nM; at tau fibrils [6], 522 nM.
With `COc1ccc(/C=C/C=C2C(=O)Nc3ccccc32)cc1` [Compound 19, 3-(3-(4-Methoxyphenyl)allylidene)indolin-2-one], the Ki on α-syn fibrils [4] was 62 nM and 61.1 nM; at Aβ1-42 fibrils [5], 125 nM and 126 nM; at tau fibrils [6], 169 ± 22.3 nM.
In the case of `CN(C)c1ccc(/C=C/C=C2C(=O)Nc3ccccc32)cc1` [Compound 20, 3-(3-(4-(Dimethylamino)phenyl)allylidene)indolin-2-one], the “labeling of Lewy bodies” value on Lewy bodies is “label both Lewy bodies and Aβ plaques; also recorded: high labeling of both Lewy Bodies and Aβ plaques”. Moreover, the “time for isolated pure Z,E and E,E isomers to isomerize to a mixture” value in series [7] is listed as no more than 20 min. Also, the Ki was 41 nM and 40.7 nM at α-syn fibrils [4]; 27 nM and 27.6 nM at Aβ1-42 fibrils [5]; 54 nM and 53.7 nM on tau fibrils [6]. In addition, at Aβ plaques, the “labeling of Aβ plaques” value is “label both Lewy bodies and Aβ plaques; also recorded: high labeling of both Lewy Bodies and Aβ plaques”.
On to `CN(C)c1ccc(/C=C/C=C2C(=O)Nc3ncccc32)cc1` [Compound 21, 3-(3-(4-(Dimethylamino)phenyl)allylidene)-1H-pyrrolo[2,3-b]pyridin-2(3H)-one], for which the inhibition constant Ki worked out at 11.5 ± 2 nM at α-syn fibrils [4], 15.3 ± 5.5 nM on Aβ1-42 fibrils [5] and 35.1 ± 12.3 nM at tau fibrils [6].
For `CN(C)c1ccc(/C=C/C=C2C(=O)Nc3ccc(O)cc32)cc1` [Compound 22, 3-(3-(4-(Dimethylamino)phenyl)allylidene)-5-hydroxyindolin-2-one], in that order: 54 ± 17.9 nM, 37.1 ± 13.6 nM and 48 ± 17 nM.
Take `COc1ccc(/C=C/C=C2C(=O)N(Cc3ccccc3)c3ccccc32)cc1` [Compound 24, 1-Benzyl-3-(3-(4-methoxyphenyl)allylidene)indolin-2-one]: the results for the Ki at α-syn fibrils [4], on Aβ1-42 fibrils [5] and on tau fibrils [6] were 72.5 ± 22.6 nM, 741 ± 255 nM and 718 ± 295 nM, respectively.
For `CN(C)c1ccc(/C=C/C=C2C(=O)N(C)c3ccccc32)cc1` [Compound 25, 3-(3-(4-(Dimethylamino)phenyl)allylidene)-1-methylindolin-2-one] the same measures were 63.7 ± 29.6 nM, 56 ± 14.8 nM and 229 ± 121 nM.
For `CN(C)c1ccc(/C=C/C=C2C(=O)N(Cc3ccccc3)c3ccccc32)cc1` [Compound 26, 1-Benzyl-3-(3-(4-(dimethylamino)phenyl)allylidene)indolin-2-one] the same measures were 40.9 ± 25.2 nM, 358 ± 162 nM and 374 ± 209 nM.
As for `COc1ccc(CN2C(=O)C(=C/C=C/c3ccc(N(C)C)cc3)c3ccccc32)cc1` [Compound 27, 3-(3-(4-(Dimethylamino)phenyl)allylidene)-1-(4-methoxybenzyl)indolin-2-one], the “time for isolated pure Z,E and E,E isomers to isomerize to a mixture” value in [7] is listed as no more than 20 min. The Ki at α-syn fibrils [4] worked out at 54.6 ± 11.4 nM; at Aβ1-42 fibrils [5], 130 ± 41.4 nM; at tau fibrils [6] it was 240 ± 158 nM.
As for `CN(C)c1ccc(/C=C/C=C2C(=O)N(Cc3ccc([N+](=O)[O-])cc3)c3ccccc32)cc1` [Compound 28, 3-(3-(4-(Dimethylamino)phenyl)allylidene)-1-(4-nitrobenzyl)indolin-2-one], the Ki on α-syn fibrils [4] was 4 nM and 4.2 nM; at Aβ1-42 fibrils [5], 92.4 ± 21.9 nM; on tau fibrils [6] it was 90 ± 48.8 nM.
Regarding `CCOC(=O)N1C(=O)C(=C/C=C/c2ccc(N(C)C)cc2)c2ccccc21` [Compound 30, Ethyl 3-(3-(4-(dimethylamino)phenyl)allylidene)-2-oxoindoline-1-carboxylate], the inhibitory constant (Ki) worked out at 45.3 ± 9 nM at α-syn fibrils [4], 84 ± 35 nM on Aβ1-42 fibrils [5] and 263 ± 110 nM on tau fibrils [6].
`CN(C)c1ccc(/C=C/C=C2C(=O)N(Cc3ccccc3)c3ncccc32)cc1` [Compound 31, 1-Benzyl-3-(3-(4-(dimethylamino)phenyl)allylidene)-1H-pyrrolo[2,3-b]pyridin-2(3H)-one]: the Ki at α-syn fibrils [4] turned out to be 68.3 ± 31.2 nM; on Aβ1-42 fibrils [5], 85.1 ± 23 nM; at tau fibrils [6], 257 ± 117 nM.
For `COc1ccc(CN2C(=O)C(=C/C=C/c3ccc(N(C)C)cc3)c3cccnc32)cc1` [Compound 32, 3-(3-(4-(Dimethylamino)phenyl)allylidene)-1-(4-methoxybenzyl)-1H-pyrrolo[2,3-b]pyridin-2(3H)-one], in that order: 29.8 ± 6.6 nM, 107 ± 18.9 nM and 204 ± 26.7 nM.
For `CN(C)c1ccc(/C=C/C=C2C(=O)N(Cc3ccc(N)cc3)c3ccccc32)cc1` [Compound 33, 1-(4-Aminobenzyl)-3-(3-(4-(dimethylamino)phenyl)allylidene)indolin-2-one], the Ki at α-syn fibrils [4] is 43.6 ± 20 nM; on Aβ1-42 fibrils [5], 98.9 ± 12.1 nM; on tau fibrils [6] it was 131 ± 51.5 nM.
With `CN(C)c1ccc(/C=C/C=C2C(=O)N(c3ccccc3)c3ccccc32)cc1` [Compound 36, 3-(3-(4-(Dimethylamino)phenyl)allylidene)-1-phenylindolin-2-one], the Ki at α-syn fibrils [4] turned out to be 68.1 ± 33 nM; at Aβ1-42 fibrils [5] it was 287 ± 142 nM; at tau fibrils [6], 465 ± 94.6 nM.
On to `O=C1Nc2ccccc2/C1=C/C=C/c1ccc([N+](=O)[O-])cc1` [Compound 41a, (Z)-3-((E)-3-(4-Nitrophenyl)allylidene)indolin-2-one], for which the “time stable in solution” value in [7] (CH2Cl2-MeOH (1:1), HPLC peak and retention time) is on record as no less than 20 h.
In the case of `O=C1Nc2ccccc2/C1=C\C=C\c1ccc([N+](=O)[O-])cc1` [Compound 41b, (E)-3-((E)-3-(4-Nitrophenyl)allylidene)indolin-2-one], the “isomerization to an un-identified isomer” value in series [7] (CH2Cl2-MeOH (1:1), 20 h, HPLC) came to 33%.
As to `Nc1ccc(/C=C/C=C2C(=O)Nc3ccccc32)cc1` [Compound 47, 3-(3-(4-Aminophenyl)allylidene)indolin-2-one], the Ki at α-syn fibrils [4] was 44.8 ± 15.6 nM; at Aβ1-42 fibrils [5], 50.8 ± 18.5 nM; at tau fibrils [6] it was 38.3 ± 28.7 nM.

One may read the Ki as a measure of affinity in units of concentration, obtained from inhibition or displacement. A lower Ki goes with a stronger hold on the target.
